Experimental data: US20060154942A1, “Quinazolinone derivatives useful as anti-hyperalgesic agents” (priority 2002, published 2006)

CC(C)c1cc2nc(N)[nH]c(=O)c2cc1-c1ccc(Cl)cc1 [Example 59, 2-Amino-6-(4-chlorophenyl)-7-isopropyl-3H-quinazolin-4-one]
melting point: 326 to 330 °C
